In ChEMBL document CHEMBL3817795, “Identification and optimisation of a series of N-(4-anilino-2-pyridyl)acetamide activin receptor-like kinase 1 (ALK1) inhibitors” (Medchemcomm, 2016):

How the values were obtained:
[1] = target: Lymphokine-activated killer T-cell-originated protein kinase (Homo sapiens) (UniProt Q96KB5); experiment: Inhibition of human recombinant full-length PBK at 1 uM after 30 mins
[2] = target: Inhibitor of nuclear factor kappa-B kinase subunit epsilon (Homo sapiens) (UniProt Q14164); experiment: Inhibition of human recombinant full-length IKKepsilon expressed in insect Sf21 cells at 1 uM using MBP as substrate after 30 mins
[3] = target: Serine/threonine-protein kinase PAK 4 (Homo sapiens) (UniProt O96013); experiment: Inhibition of human recombinant full-length PAK4 expressed in Escherichia coli at 1 uM using RRRLSFAEPG as substrate after 30 mins
[4] = target: Dual specificity tyrosine-phosphorylation-regulated kinase 1A (Homo sapiens) (UniProt Q13627); experiment: Inhibition of human recombinant DYRK1A (1 to 499 residues) expressed in Escherichia coli at 1 uM using KKISGRLSPIMTEQ as substrate after 30 mins
[5] = target: MAP/microtubule affinity-regulating kinase 3 (Homo sapiens) (UniProt P27448); experiment: Inhibition of human recombinant full-length MARK3 expressed in insect Sf21 cells at 1 uM using KKKVSRSGLYRSPSMPENLNRPR as substrate after 30 mins
[6] = target: Serine/threonine-protein kinase D1 (Homo sapiens) (UniProt Q15139); experiment: Inhibition of human recombinant full-length PKD1 expressed in insect Sf21 cells at 1 uM using KKLNRTLSVA as substrate after 30 mins
[7] = target: Calcium/calmodulin-dependent protein kinase type 1D (Homo sapiens) (UniProt Q8IU85); experiment: Inhibition of CAMK1d (unknown origin) at 1 uM
Sequence of Calcium/calmodulin-dependent protein kinase type 1D (Homo sapiens) (Q8IU85 whole entry, looked up): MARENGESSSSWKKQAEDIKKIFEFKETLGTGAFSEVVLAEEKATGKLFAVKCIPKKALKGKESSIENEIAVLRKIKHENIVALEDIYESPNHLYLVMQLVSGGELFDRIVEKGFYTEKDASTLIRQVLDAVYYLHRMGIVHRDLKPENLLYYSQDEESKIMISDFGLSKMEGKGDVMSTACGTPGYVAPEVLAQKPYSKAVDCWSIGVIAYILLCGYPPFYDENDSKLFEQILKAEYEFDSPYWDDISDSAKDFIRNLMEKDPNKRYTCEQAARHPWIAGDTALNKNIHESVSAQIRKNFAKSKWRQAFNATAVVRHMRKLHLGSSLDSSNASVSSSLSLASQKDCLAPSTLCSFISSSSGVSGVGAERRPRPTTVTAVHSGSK

[8] = target: Mitogen-activated protein kinase 9 (Homo sapiens) (UniProt P45984); experiment: Inhibition of MAPK9 (unknown origin) at 1 uM
[9] = target: Aurora kinase B (Homo sapiens) (UniProt Q96GD4); experiment: Inhibition of human recombinant full-length AurKB expressed in insect Sf21 cells at 1 uM using LRRLSLGLRRLSLGLRRLSLGLRRLSLG as substrate after 30 mins
[10] = target: Ribosomal protein S6 kinase alpha-3 (Homo sapiens) (UniProt P51812); experiment: Inhibition of MAPKAPK1B (unknown origin) at 1 uM
[11] = target: Ribosomal protein S6 kinase alpha-5 (Homo sapiens) (UniProt O75582); experiment: Inhibition of human recombinant full-length MSK1 at 1 uM after 30 mins
[12] = target: Ribosomal protein S6 kinase beta-1 (Homo sapiens) (UniProt P23443); experiment: Inhibition of P70S6K (unknown origin) at 1 uM
Sequence of Ribosomal protein S6 kinase beta-1 (Homo sapiens) (P23443 whole entry, looked up): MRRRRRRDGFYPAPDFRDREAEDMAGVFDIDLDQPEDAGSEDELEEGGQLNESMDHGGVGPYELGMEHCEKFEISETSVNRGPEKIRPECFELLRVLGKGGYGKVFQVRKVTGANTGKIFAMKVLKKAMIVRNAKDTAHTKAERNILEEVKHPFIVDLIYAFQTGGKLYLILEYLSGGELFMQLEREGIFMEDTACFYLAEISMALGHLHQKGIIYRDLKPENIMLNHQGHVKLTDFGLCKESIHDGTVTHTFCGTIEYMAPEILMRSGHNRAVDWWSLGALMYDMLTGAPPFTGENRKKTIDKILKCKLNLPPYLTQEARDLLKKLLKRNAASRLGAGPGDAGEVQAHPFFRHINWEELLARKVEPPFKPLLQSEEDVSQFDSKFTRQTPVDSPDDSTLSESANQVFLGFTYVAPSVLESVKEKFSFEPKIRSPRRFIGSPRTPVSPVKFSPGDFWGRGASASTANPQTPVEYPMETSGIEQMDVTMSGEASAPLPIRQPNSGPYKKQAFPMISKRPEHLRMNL

[13] = target: Protein kinase C zeta type (Homo sapiens) (UniProt Q05513); experiment: Inhibition of PKCz (unknown origin) at 1 uM
[14] = target: Serine/threonine-protein kinase pim-3 (Homo sapiens) (UniProt Q86V86); experiment: Inhibition of human recombinant full-length PIM3 expressed in insect Sf21 cells at 1 uM using RSRHSSYPAGT as substrate after 30 mins
[15] = target: Homeodomain-interacting protein kinase 2 (Homo sapiens) (UniProt Q9H2X6); experiment: Inhibition of human recombinant HIPK2 (165 to 564 residues) expressed in Escherichia coli at 1 uM after 30 mins
[16] = target: Serine/threonine-protein kinase Chk2 (Homo sapiens) (UniProt O96017); experiment: Inhibition of human recombinant CHK2 (5 to 543 residues) expressed in Escherichia coli at 1 uM after 30 mins
[17] = target: Serine/threonine-protein kinase PLK1 (Homo sapiens) (UniProt P53350); experiment: Inhibition of human recombinant full-length PLK1 expressed in insect Sf21 cells at 1 uM using ISDELMDATFADQEAKKK as substrate after 30 mins
[18] = target: SRSF protein kinase 1 (Homo sapiens) (UniProt Q96SB4); experiment: Inhibition of human recombinant full-length SRPK1 expressed in Escherichia coli at 1 uM using RSRSRSRSRSRSRSR as substrate after 30 mins
[19] = target: Insulin-like growth factor 1 receptor (Homo sapiens) (UniProt P08069); experiment: Inhibition of IGF1R (unknown origin) at 1 uM
[20] = target: Serine/threonine-protein kinase Nek2 (Homo sapiens) (UniProt P51955); experiment: Inhibition of human recombinant full-length NEK2a expressed in insect Sf21 cells at 1 uM using RFRRSRRMI as substrate after 30 mins
[21] = target: Dual specificity tyrosine-phosphorylation-regulated kinase 3 (Homo sapiens) (UniProt O43781); experiment: Inhibition of human recombinant full-length DYRK3 expressed in Escherichia coli at 1 uM using KKISGRLSPIMTEQ as substrate after 30 mins
Sequence of Dual specificity tyrosine-phosphorylation-regulated kinase 3 (Homo sapiens) (O43781 whole entry): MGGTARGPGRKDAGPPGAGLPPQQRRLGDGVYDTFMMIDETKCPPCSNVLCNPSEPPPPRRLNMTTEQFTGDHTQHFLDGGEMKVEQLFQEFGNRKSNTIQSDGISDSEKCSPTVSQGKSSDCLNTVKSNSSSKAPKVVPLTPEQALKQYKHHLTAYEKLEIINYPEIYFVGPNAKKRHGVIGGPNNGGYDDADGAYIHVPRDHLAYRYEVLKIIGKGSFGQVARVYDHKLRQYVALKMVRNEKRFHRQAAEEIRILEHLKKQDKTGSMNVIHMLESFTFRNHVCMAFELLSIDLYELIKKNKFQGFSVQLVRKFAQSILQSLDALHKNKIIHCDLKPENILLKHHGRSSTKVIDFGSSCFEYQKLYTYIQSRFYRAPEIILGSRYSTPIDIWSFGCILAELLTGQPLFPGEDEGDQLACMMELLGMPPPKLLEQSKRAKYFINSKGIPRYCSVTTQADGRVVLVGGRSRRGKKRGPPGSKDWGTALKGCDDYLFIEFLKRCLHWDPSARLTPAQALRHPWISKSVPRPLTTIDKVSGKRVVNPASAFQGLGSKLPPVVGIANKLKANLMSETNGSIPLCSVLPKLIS

[22] = target: Insulin receptor (Homo sapiens) (UniProt P06213); experiment: Inhibition of INSR (unknown origin) at 1 uM
[23] = target: MAP kinase-activated protein kinase 5 (Homo sapiens) (UniProt Q8IW41); experiment: Inhibition of MAPKAPK5 (unknown origin) at 1 uM
[24] = target: Casein kinase II (Homo sapiens) (UniProt P67870+P68400+P19784); experiment: Inhibition of human recombinant full-length CK2 at 1 uM after 30 mins; format: protein-complex assay
[25] = target: Mitogen-activated protein kinase 14 (Homo sapiens) (UniProt Q16539); experiment: Inhibition of human recombinant full-length p38alpha at 1 uM after 30 mins
[26] = target: Protein kinase C alpha type (Homo sapiens) (UniProt P17252); experiment: Inhibition of human recombinant full-length PKCa expressed in insect Sf21 cells at 1 uM using histone H1 as substrate after 30 mins
Homo sapiens = organism: Homo sapiens; experiment: Inhibition of human recombinant full-length PKA expressed in Escherichia coli at 1 uM using LRRASLG as substrate after 30 mins
[27] = target: Serine/threonine-protein kinase 26 (Homo sapiens) (UniProt Q9P289); experiment: Inhibition of MST4 (unknown origin) at 1 uM
Sequence of Serine/threonine-protein kinase 26 (Homo sapiens) (Q9P289 2-416 limits assumed): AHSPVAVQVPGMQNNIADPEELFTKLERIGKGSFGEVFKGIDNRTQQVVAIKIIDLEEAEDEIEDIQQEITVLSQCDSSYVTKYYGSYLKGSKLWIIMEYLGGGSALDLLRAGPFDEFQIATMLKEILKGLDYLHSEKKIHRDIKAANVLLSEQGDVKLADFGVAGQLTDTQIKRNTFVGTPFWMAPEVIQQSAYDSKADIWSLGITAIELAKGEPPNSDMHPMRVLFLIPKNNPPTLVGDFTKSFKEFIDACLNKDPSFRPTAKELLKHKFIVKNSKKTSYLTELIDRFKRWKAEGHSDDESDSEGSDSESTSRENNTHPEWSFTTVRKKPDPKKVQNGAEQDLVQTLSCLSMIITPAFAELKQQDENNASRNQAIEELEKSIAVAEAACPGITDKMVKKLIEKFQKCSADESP

[28] = target: MAP kinase-activated protein kinase 2 (Homo sapiens) (UniProt P49137); experiment: Inhibition of human recombinant […] MAPKAPK2 (46 to 400 residues) expressed in Escherichia coli at 1 uM after 30 mins
Sequence of MAP kinase-activated protein kinase 2 (Homo sapiens) (P49137 whole entry, looked up, the tested form may be a part): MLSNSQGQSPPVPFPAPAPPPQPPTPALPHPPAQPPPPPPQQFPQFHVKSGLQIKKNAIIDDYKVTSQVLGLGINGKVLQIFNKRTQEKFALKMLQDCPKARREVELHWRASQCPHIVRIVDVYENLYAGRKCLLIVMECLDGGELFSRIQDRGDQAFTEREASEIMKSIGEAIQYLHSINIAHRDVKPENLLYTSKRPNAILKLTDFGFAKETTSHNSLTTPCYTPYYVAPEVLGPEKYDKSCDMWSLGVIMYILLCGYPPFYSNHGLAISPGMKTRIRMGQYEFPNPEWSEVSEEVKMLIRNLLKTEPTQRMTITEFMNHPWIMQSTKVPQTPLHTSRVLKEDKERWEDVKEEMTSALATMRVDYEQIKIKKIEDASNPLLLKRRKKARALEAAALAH

[29] = test system: RAC-beta serine/threonine-protein kinase (Homo sapiens), P31751 [S474D]; experiment: Inhibition of human recombinant AKT2 S474D mutant (120 to 481 residues) expressed in insect Sf21 cells at 1 uM using GRPRTSSFAEGKK as substrate after 30 mins
[30] = target: Tyrosine-protein kinase SYK (Homo sapiens) (UniProt P43405); experiment: Inhibition of SYK (unknown origin) at 1 uM
[31] = target: Myosin light chain kinase, smooth muscle (Homo sapiens) (UniProt Q15746); experiment: Inhibition of human recombinant smMLCK (475 to 838 residues) expressed in Escherichia coli at 1 uM using KKRPQRATSNVFA as substrate after 30 mins
Sequence of Myosin light chain kinase, smooth muscle (Homo sapiens) (Q15746 whole entry, the tested form may be a part): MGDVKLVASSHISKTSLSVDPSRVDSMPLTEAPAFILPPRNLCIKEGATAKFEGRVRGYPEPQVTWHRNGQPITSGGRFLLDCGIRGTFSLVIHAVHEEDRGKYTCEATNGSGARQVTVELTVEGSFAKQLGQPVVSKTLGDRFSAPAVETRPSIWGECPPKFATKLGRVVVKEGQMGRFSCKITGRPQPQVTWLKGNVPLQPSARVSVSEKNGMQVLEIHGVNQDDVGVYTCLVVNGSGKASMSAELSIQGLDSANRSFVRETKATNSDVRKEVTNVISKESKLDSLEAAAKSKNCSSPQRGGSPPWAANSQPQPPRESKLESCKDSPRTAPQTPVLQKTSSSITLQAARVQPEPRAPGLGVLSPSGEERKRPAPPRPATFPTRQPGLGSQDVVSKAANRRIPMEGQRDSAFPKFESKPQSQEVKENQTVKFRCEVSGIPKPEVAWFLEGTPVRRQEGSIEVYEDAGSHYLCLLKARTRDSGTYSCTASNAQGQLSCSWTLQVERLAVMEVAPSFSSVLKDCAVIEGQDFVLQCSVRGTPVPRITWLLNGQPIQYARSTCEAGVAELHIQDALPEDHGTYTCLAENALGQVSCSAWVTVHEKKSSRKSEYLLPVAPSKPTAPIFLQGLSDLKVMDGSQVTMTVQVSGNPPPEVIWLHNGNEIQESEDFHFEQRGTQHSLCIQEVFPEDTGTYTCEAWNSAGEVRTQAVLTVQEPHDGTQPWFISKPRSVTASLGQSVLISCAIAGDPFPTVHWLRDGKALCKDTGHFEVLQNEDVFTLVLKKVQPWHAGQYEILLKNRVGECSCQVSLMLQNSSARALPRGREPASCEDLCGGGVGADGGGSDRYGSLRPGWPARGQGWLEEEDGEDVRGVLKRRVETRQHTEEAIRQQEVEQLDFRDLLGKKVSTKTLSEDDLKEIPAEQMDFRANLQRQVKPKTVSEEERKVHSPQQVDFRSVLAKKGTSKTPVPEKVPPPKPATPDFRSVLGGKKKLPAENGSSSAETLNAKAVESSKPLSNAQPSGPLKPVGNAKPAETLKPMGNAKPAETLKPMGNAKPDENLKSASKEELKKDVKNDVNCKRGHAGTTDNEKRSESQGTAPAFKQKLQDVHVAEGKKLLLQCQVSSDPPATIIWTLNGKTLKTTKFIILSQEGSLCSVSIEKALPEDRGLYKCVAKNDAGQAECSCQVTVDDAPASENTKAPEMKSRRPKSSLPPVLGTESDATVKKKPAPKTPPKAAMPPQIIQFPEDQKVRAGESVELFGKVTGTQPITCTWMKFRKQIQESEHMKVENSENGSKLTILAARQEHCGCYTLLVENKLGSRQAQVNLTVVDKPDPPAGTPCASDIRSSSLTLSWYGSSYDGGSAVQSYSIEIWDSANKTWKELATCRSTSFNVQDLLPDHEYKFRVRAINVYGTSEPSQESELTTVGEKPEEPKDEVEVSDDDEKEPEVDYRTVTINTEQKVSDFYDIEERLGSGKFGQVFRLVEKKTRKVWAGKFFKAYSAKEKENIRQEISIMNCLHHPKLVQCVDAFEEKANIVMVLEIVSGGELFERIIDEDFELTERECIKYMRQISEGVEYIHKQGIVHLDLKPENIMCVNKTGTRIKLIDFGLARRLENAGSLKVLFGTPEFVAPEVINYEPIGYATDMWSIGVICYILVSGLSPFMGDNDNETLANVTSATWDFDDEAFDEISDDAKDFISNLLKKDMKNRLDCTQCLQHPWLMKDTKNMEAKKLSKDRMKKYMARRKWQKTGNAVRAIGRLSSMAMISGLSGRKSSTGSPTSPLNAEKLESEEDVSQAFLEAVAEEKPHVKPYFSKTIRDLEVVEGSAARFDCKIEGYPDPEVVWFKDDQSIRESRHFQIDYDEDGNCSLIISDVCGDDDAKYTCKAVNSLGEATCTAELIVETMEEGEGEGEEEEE

[32] = target: Eukaryotic elongation factor 2 kinase (Homo sapiens) (UniProt O00418); experiment: Inhibition of human recombinant full-length EF2K expressed in Escherichia coli at 1 uM using RKKFGESKTKTKEFL as substrate after 30 mins
[33] = target: Ephrin type-B receptor 3 (Homo sapiens) (UniProt P54753); experiment: Inhibition of EPHB3 (unknown origin) at 1 uM
[34] = target: Serine/threonine-protein kinase Nek6 (Homo sapiens) (UniProt Q9HC98); experiment: Inhibition of human recombinant NEK6 (8 to 313 residues) expressed in insect Sf21 cells at 1 uM using FLAKSFGSPNRAYKK as substrate after 30 mins
[35] = target: 3-phosphoinositide-dependent protein kinase 1 (Homo sapiens) (UniProt O15530); experiment: Inhibition of PDPK1 (unknown origin) at 1 uM
Sequence of 3-phosphoinositide-dependent protein kinase 1 (Homo sapiens) (O15530 whole entry): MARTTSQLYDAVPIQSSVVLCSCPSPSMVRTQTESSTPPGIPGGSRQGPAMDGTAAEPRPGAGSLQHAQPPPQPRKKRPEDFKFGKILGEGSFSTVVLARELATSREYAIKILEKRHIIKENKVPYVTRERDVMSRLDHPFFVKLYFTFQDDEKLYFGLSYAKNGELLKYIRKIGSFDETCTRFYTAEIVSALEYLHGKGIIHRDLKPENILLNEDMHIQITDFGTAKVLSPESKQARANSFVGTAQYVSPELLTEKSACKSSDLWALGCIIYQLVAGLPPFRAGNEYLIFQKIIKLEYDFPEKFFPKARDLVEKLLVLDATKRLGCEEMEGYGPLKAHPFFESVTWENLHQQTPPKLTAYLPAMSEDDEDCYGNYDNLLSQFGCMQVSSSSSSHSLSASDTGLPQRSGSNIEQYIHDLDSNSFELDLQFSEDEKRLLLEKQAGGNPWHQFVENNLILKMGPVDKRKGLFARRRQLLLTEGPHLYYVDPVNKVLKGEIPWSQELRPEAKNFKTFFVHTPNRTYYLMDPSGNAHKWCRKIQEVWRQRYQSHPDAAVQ

inhibition [2]: < 80%
inhibition [3]: < 80%
inhibition [4]: < 80%
inhibition [5]: < 80%
inhibition [6]: < 80%
inhibition [7]: < 80%
inhibition [8]: < 80%
inhibition [9]: < 80%
inhibition [10]: < 80%
inhibition [11]: < 80%
inhibition [12]: < 80%
inhibition [13]: < 80%
inhibition [14]: < 80%
inhibition [15]: < 80%
inhibition [16]: < 80%
inhibition [17]: < 80%
inhibition [18]: < 80%
inhibition [19]: < 80%
inhibition [20]: < 80%
inhibition [21]: < 80%
inhibition [22]: < 80%
inhibition [23]: < 80%
inhibition [24]: < 80%
inhibition [25]: < 80%
inhibition [26]: < 80%
inhibition (Homo sapiens): < 80%
inhibition [27]: < 80%
inhibition [28]: < 80%
inhibition [29]: < 80%
inhibition [30]: < 80%
inhibition [31]: < 80%
inhibition [32]: < 80%
inhibition [33]: < 80%
inhibition [34]: < 80%
inhibition [35]: < 80%
SMILES: O=C(Nc1cc(Nc2c(Cl)cnc3c2OCO3)ccn1)C1CC1
inhibition [1]: < 80%
